Assay results: patent US5616573A, “Glucocorticoids” (Schering Aktiengesellschaft, priority 1993, dated 1997)
Where a SMILES comes first, the peptide text is derived from it. The star is where a group is joined. Methylprednisolone(17-OCOEt) = CCC(=O)O[C@]1(C(=O)CO*)CC[C@H]2[C@@H]3C[C@H](C)C4=CC(=O)C=C[C@]4(C)[C@H]3[C@@H](O)C[C@@]21C; X1 = C[C@H]1C[C@@H]2[C@H]([C@@H](O)C[C@@]3(C)[C@H]2CC[C@]3(O)C(=O)CO*)[C@@]2(C)C=CC(=O)C=C12; X5 = C[C@]12CCC(=O)C=C1CC[C@@H]1[C@@H]2[C@@H](O)C[C@@]2(C)[C@H]1CC[C@]2(O)C(=O)CO*; Fmoc = O=C(OCC1c2ccccc2-c2ccccc21)*; Boc = CC(C)(C)OC(=O)*

Experiments:
[1] = test system: rat ear; experiment: Local antiinflammatory action: modified rat ear test according to Tonelli (croton oil); assay type: in vivo; settings: topical, * = significant (p < 0.05); for Edema [% inhibition]: ear weight, 16 hours after irritant; for Infiltration [% inhibition]: granulocytic infiltrate (myeloperoxidase and leukocyte-elastase), 16 hours
Experimental: The antiinflammatory activity of the corticoid-21-oligopeptide esters is performed in a modified rat ear test according to Tonelli. The modifications are based on changes of irritant solution (4% croton oil, 10% DMSO in ethanol), the type of administration (application of the solution with pipette) and the evaluation of the test 16 hours after administration of the irritant solution. At this time, both the inhibition of the edema by measuring the ear weight and the inhibition of the granulocytic infiltrate by measuring the granulocyte marker myeloperoxidase and leukocyte-elastase in the ear homogenate can be determined. The group size was 6 animals in each case.

[2] = test system: Esterases of Rat Skin; experiment: Cleavage in the Homogenate of Normal Rat Skin (unspecific cleavage by esterases of rat skin); assay type: in vitro ADME; settings: percent of hydrolysis rate of 6α-methylprednisolone-17-propionate-21-acetate; approximately 100 μmol/l, pH=7.4, 37° C.
Experimental: (§1) The homogenate of the skin of male rats (0.1 mol/l of phosphate buffer, pH=7.4) is centrifuged for 20 minutes at 10,000 g. The supernatant is adjusted in phosphate buffer to a protein concentration of 3 mg/ml. The test substances in 20 μl of ethanol are added to 1 ml of this homogenate. The final concentration of the corticoid derivatives is approximately 100 μmol/l. The incubation takes place for different periods at 37° C. At the end of incubation, the samples are extracted three times with 3 ml of chloroform. The combined extracts are evaporated to dryness under nitrogen and taken up with 100 μl of ethanol. The ethanolic solutions are mixed with the same volume of water and the saponification products are separated by HPLC (RP 18, acetonitrile/water-gradient, detection 240 nm). The relative hydrolysis rate is indicated in percent of the hydrolysis rate of the 6α-methylprednisolone-17-propionate-21-acetate.

[3] = biological target: T1, Leukocyte Elastase (Homo sapiens, UniProt P08246); experiment: Cleavage of Glucocorticoid-21-Oligopeptide Esters by Leukocyte Elastase in the lysate of human neutrophilic granulocytes; assay type: biochemical; settings: lysate of human neutrophilic granulocytes, 10^6 cells per ml, 1 hour at 37° C.; Fmoc-Ala-Ala-Pro-Val-O-MPP is used as reference
T1 construct: also pure human sputum elastase (Elastin Products)
T1 sequence (P08246 30-267): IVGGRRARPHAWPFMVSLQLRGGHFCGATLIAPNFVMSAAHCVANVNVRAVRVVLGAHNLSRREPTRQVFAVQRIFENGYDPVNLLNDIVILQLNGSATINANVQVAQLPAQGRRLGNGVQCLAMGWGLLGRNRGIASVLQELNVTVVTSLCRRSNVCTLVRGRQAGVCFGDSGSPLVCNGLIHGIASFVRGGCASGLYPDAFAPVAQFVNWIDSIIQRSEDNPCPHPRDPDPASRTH
Experimental: as §1
Polymorphonuclear granulocytes are isolated from donor blood. The cells are lysed in a density of 10^6 cells per ml. 1 ml each of the lysate is mixed with 20 μl of ethanolic corticoid solution (5 mmol/l) After 1 hour of incubation at 37° C., the samples are extracted three times with 3 ml of chloroform and worked up as described above for HPLC analysis. The cleavage of the prodrugs according to the invention can be inhibited under these test conditions by the addition of the specific elastase inhibitor MeO-succinyl-Ala-Ala-Pro-Val-chloromethylketone to 90%. Furthermore, the compounds are also hydrolyzed by pure human sputum-elastase (elastin products).

[4] = biological target: T2, rat glucocorticoid receptor (Rattus norvegicus, UniProt P06536); experiment: Binding to the Glucocorticoid Receptor: competitive displacement of tritiated dexamethasone in rat thymus cytosol; settings: quotient of concentrations of test substance and dexamethasone displacing 50% of labeled dexamethasone; 2 hours at 4° C.; lower KF = better binding
T2 sequence (P06536 1-795): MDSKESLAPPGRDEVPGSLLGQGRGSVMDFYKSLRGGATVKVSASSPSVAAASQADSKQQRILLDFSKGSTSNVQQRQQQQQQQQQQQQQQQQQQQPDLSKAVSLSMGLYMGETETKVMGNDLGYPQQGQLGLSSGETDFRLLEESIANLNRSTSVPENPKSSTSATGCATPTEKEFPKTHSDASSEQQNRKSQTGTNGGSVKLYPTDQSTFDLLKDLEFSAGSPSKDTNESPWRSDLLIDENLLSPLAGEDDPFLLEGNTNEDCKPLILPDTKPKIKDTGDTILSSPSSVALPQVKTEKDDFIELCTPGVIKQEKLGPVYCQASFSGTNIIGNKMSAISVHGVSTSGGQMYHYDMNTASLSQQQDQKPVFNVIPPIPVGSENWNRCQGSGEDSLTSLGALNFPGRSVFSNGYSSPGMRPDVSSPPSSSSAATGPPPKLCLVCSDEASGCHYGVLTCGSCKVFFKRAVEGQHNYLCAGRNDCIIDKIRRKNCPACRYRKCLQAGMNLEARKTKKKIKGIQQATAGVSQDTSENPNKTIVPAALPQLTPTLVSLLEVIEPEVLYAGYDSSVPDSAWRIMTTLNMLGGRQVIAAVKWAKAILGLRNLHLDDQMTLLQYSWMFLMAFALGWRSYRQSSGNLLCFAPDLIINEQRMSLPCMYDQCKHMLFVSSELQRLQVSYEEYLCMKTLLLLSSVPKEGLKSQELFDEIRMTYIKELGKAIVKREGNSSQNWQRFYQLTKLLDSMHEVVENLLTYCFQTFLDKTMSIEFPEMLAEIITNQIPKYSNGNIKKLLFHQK
Experimental: The binding of the substances according to the invention to the rat glucocorticoid receptor is determined by competitive displacement of tritiated dexamethasone from the receptor binding. Different concentrations of the glucocorticoid esters are incubated for 2 hours at 4° C. in the presence of a constant concentration of tritium-labeled dexamethasone with rat thymus cytosol. After the incubation time, the non-protein-bound steroids are adsorbed on activated carbon and the activated carbon is centrifuged off. The radioactivity in the supernatant is used as a measurement for the amount of receptor-bound dexamethasone.
From the measurements, the concentrations of the respective corticoid derivative are calculated, which are necessary to displace 50% of the labeled dexamethasone from the receptor binding. Competition factor (KF) is the quotient of these calculated concentrations for the test substance and that of dexamethasone.

[5] = concentration 0.003 (unit not given)
[6] = concentration 0.03 (unit not given)
[7] = concentration 0.3 (unit not given)

CCC(=O)O[C@]1(C(=O)COC(=O)[C@@H](NC(=O)[C@@H]2CCCN2C(=O)[C@H](C)NC(=O)[C@H](C)NC(=O)OC(C)(C)C)C(C)C)CC[C@H]2[C@@H]3C[C@H](C)C4=CC(=O)C=C[C@]4(C)[C@H]3[C@@H](O)C[C@@]21C [Example 3, N-(N-(N-(N-(1,1-Dimethylethoxycarbonyl)-L-alanyl)-L-alanyl)-L -prolyl)-L-valine [11β,21-dihydroxy-3,20-dioxo-6α-methyl-17-propionyloxy-pregna-1,4-dien-21-yl] ester] (Boc-AAPV-{Methylprednisolone(17-OCOEt)})
Edema [% inhibition] [1, 5]: 17%
Infiltration [% inhibition] [1, 5]: 11%
Edema [% inhibition] [1, 6]: 51%
Infiltration [% inhibition] [1, 6]: 43%
Edema [% inhibition] [1, 7]: 81%
Infiltration [% inhibition] [1, 7]: 77%
Relative Hydrolysis Rate [%] [2]: 50%
Relative Hydrolysis Rate [%] [3]: 160-190%

CCC(=O)O[C@]1(C(=O)COC(=O)[C@@H](NC(=O)[C@@H]2CCCN2C(=O)[C@H](C)NC(=O)[C@H](C)NC(=O)OCC2c3ccccc3-c3ccccc32)C(C)C)CC[C@H]2[C@@H]3C[C@H](C)C4=CC(=O)C=C[C@]4(C)[C@H]3[C@@H](O)C[C@@]21C [Example 4, N-(N-(N-(N-(9H-Fluoren-9-ylmethoxycarbonyl)-L-alanyl)-L-alanyl) -L-prolyl)-L-valine [11β,21-dihydroxy-3,20-dioxo-6α-methyl-17-propionyloxy-pregna-1,4-dien-21-yl] ester] (Fmoc-AAPV-{Methylprednisolone(17-OCOEt)})
Edema [% inhibition] [1, 5]: 30%
Infiltration [% inhibition] [1, 5]: 16%
Edema [% inhibition] [1, 6]: 48%
Infiltration [% inhibition] [1, 6]: 42%
Edema [% inhibition] [1, 7]: 78%
Infiltration [% inhibition] [1, 7]: 66%
Relative Hydrolysis Rate [%] [2]: 4%
Relative Hydrolysis Rate [%] [3]: 100%

CC(C)[C@H](NC(=O)[C@@H]1CCCN1C(=O)[C@H](C)NC(=O)[C@H](C)NC(=O)OCC1c2ccccc2-c2ccccc21)C(=O)OCC(=O)[C@@]1(O)CC[C@H]2[C@@H]3C[C@H](C)C4=CC(=O)C=C[C@]4(C)[C@H]3[C@@H](O)C[C@@]21C [Example 22] (Fmoc-AAPV-X1)
Relative Hydrolysis Rate [%] [2]: 6%
Relative Hydrolysis Rate [%] [3]: 370%

CC(C)[C@H](NC(=O)[C@@H]1CCCN1C(=O)[C@H](C)NC(=O)[C@H](C)NC(=O)OCC1c2ccccc2-c2ccccc21)C(=O)OCC(=O)[C@@]1(O)CC[C@H]2[C@@H]3CCC4=CC(=O)CC[C@]4(C)[C@H]3[C@@H](O)C[C@@]21C [Example 29, N-(N-(N-(N-(9H-Fluoren-9-yl-methoxycarbonyl)-L-alanyl)-L-alanyl) -L-prolyl)-L-valine [11β,17,21-trihydroxy-3,20-dioxo-pregn-4-en-21-yl] ester] (Fmoc-AAPV-X5)
Competition Factor [KF] [4]: k.k. [n.c.]

CCCCC(=O)O[C@]1(C(=O)COC(=O)[C@@H](NC(=O)[C@@H]2CCCN2C(=O)[C@H](C)NC(=O)[C@H](C)NC(=O)OCC2c3ccccc3-c3ccccc32)C(C)C)[C@@H](C)C[C@H]2[C@@H]3CCC4=CC(=O)C=C[C@]4(C)[C@@]3(F)[C@@H](O)C[C@@]21C [Example 39, N-(N-(N-(N-(9H-Fluoren-9-yl-methoxycarbonyl)-L-alanyl)-L-alanyl) -L-prolyl)-L-valine [9α-fluoro-11β,21-dihydroxy-16β-methyl-3,20-dioxo-17-valeroyloxy-pregna-1,4-dien-21-yl] ester]
Relative Hydrolysis Rate [%] [2]: 0%
Relative Hydrolysis Rate [%] [3]: 42%
